This experiment has as its system Pu19m2 (DNA, G4) AAGGGAGGGCGGCGGGACA
The experiment in a line: thermal melting. Conditions: 50 mM K+; complex ~60 °C, free unimolecular vG4 ~45 °C.

In the case of `Nc1nc2c(ncn2[C@H]2C[C@H](O)[C@@H](COP(=O)(O)O)O2)c(=O)[nH]1`, the Tm was ~ 15 °C.

The record behind these values is paper PMC7241120 (2020).
